Laboratory results reported in patent US8551489B2, “Methods for the treatment of cancers” (MUSC Foundation for Research Development, priority 2008, dated 2013).
“Also recorded” adds a separate entry of the source. Where two headings read alike, the source gives them in different places. Values belong to the compound of their own block, whether it stands above or below them.

Columns and labels:
[1] = healthy individuals, patients with asthma or cardiovascular diseases, cited from earlier work
[2] = test system: TCC-SUP human bladder cancer xenografts; test: Xenograft mouse model, subcutaneous TCC-SUP in nu/nu mice; assay type: in vivo
Procedure: FIGS. 9A-B. TP receptor antagonist inhibits bladder cancer tumor growth. (FIG. 9A) Anti-tumor effects of GR32191 and cisplatin treatment in immunocompromised mice. Subcutaneous TCC-SUP human bladder cancer xenografts in nude mice were treated with vehicle control (12 mice), GR32191 (15 mice), 5 mg/kg cisplatin (cisplatin high) (12 mice), 5 mg/kg cisplatin in combination with GR32191 (13 mice), or 0.5 mg/kg (single low dose cisplatin) alone (10 mice) or 0.5 mg/kg cisplatin in combination with GR32191 (10 mice). Tumor size was measured over time. Kaplan-Meier curves showing time to tumor onset across the treatment groups. (FIG. 9B) Pathological evaluation of tumors derived from mice treated with GR32191 (n=15) and vehicle control mice (n=12). Representative images of CD31 staining, TUNEL, staining, PCNA staining, and H&E staining are shown. Graphs on the left indicate the quantitative analysis for each of these markers. Five fields from 5 independent tumors (total 25) were counted and scored blindly. Statistically significant (p<0.05) differences compared to vehicle alone were indicated (++p<0.001 or +p<0.05).
Antigen retrieval was done by heating in a microwave oven for 5 min on high power in 10 mM citrate, pH 6.0. Sections were washed and nonspecific binding was blocked with 10% horse serum in Tris-buffered saline (TBS) (50 mM Tris-HCl, 0.9% NaCl, pH 8.0) for 20 min, then incubated overnight at 4° C. with the TP isoform-specific primary antibodies at a 1:200 dilution in the blocking solution, anti-CD31 antibody (DAKO) was used at dilution 1:25. After overnight incubation at 4° C. followed by three 10-min washes in TBS. Immpress™ horse anti-rabbit secondary was incubated (Vector Laboratories, Burlingame, Calif.) for 45 min at room temperature. Slides were counterstained with hematoxylin. PCNA staining was done utilizing mouse monoclonal antibody against human PCNA (SantaCruz) at dilution 1:200. For TUNEL staining, sections were stained using the Situ Cell Death Detection Kit (Roche Applied Science).
TCC-SUP human bladder cancer cells or SV-HUC cells stably transfected with pcDNA3, TP-α or TP-β were used in a subcutaneous model in immunocompromised (nu/nu) mice. TCC-SUP cells (5×10^6 in PBS) or SV-HUC cells (5×10^7 in Matrigel™, BD Bioscience Inc.) were injected s.c. into the right and left flanks of anesthetized mice. Tumor growth was monitored in these mice twice a week. For mice injected with TCC-SUP, GR32191 or vehicle control was administered daily (20 mg/kg) by gavage with treatment initiated 24 hrs after initial injection. Two cycles of cisplatin (single high dose (5 mg/kg) or single low dose (0.5 mg/kg)) were administrated at day 4 and day 11 post tumor cell injection.
Kaplan-Meier survival curves were constructed for overall mouse survival for two groups with and without over-expressed TP-β receptor protein. ANOVA was used to analyze the in vitro drug treatments and drug combination data. Data are presented as the mean±SD. For all statistical tests, a two-sided p-value<0.05 was used to reject the null hypothesis. Kaplan-Meier curves were used to describe time to tumor onset in each mouse group, and a Cox proportional hazards model was used to estimate and test for differences across treatment groups. Hazard ratios and their 95% confidence intervals were to describe rates of tumor onset and p-values used to compare tumor onset across groups. The proportional hazards assumption was tested using Schoenfeld residuals. Differences in tumor growth were assessed by comparing the slopes of tumor growth across groups based on a linear longitudinal two-stage analysis where slopes were estimated in stage 1 and compared across mice in stage 2. Linear regression coefficients were evaluated using Wald tests. Statistical analyses were performed using R statistical software and utilized the survival library.

T24 cells [3] = test: Sensitivity of T24 cells to cisplatin with TP receptor antagonists; assay type: cell-based, human
Procedure: SV-HUC and T24 cells were seeded at 5,000 cells per well in 96-well plates, and then treated with either compound or vehicle (ethanol) alone. The number of viable cells were quantified at the indicated time points, using the MTT (3-(4,5-Dimethyl-2-thiazolyl)-2,5-diphenyl-2H-tetrazolium bromide thiazole blue) assay, performed in quadruplicate, according to the manufacturer's instructions (Sigma-Aldrich). Optical density (OD) was measured at wavelength of 550 nm with reference wavelength of 690 nm.
Cell viability was analyzed under the microscope at 200× using trypan blue staining. Flow cytometric measurements of apoptosis were as follows. After 12 hours treatment with solvent control or TP receptor antagonists, cells were washed twice in ice cold phosphate buffered saline (PBS) and resuspended in binding buffer (10 mM HEPES, 140 mM NaCl, 2.5 mM CaCl2), at 1×10^6 cells in a 400 μl volume of binding buffer, in duplicate. Cells were incubated with 10 μl of human annexin V-phycoerythrin (PE) (BD Bioscience Inc.) for 15 min at room temperature in dark. […] The TUNEL assay was performed following the protocol of the TUNEL kit's manufacturer (Roche Diagnostics).

bladder cancer cells = test: Migration and invasion assays; assay type: cell-based, human
Procedure: Cell migration experiments were carried out using 8-μm pore size migration chambers (Falcon, Becton Dickinson) precoated at 4° C. overnight with fibronectin (Becton Dickinson) at a concentration of 5 μg per square centimeter in PBS. The following day, the fibronectin solution was aspirated and the migration chambers were rinsed one time with water and allowed to air dry prior to the migration experiment. Cell invasion experiments were carried out using re-hydrated 8-μm pore size invasion chambers precoated with Matrigel (Becton Dickinson). Cells at 80% confluence were trypsinized, harvested, and counted. For each condition, cells were seeded at 25,000 cells/well (T24) or 100,000 cells/well (SV-HUC) in 500 μl serum free media, then added to each migration and invasion chamber. Medium (750 μl) containing 10% serum was used as a chemoattractant in the lower chamber. Both upper and lower chambers contained the indicated compound. Cells were allowed to migrate for eight hours or invade for 24 hours at 37° C. in the presence of 5% CO2. […] Migrating and invading cells in 10 high power fields in each chamber were counted and the mean cell number was calculated. Each experiment was conducted in triplicate and repeated three times.

tumor cell = test: Combination with paclitaxel in vitro, tumor cell death; assay type: cell-based; settings: antagonist added to paclitaxel in vitro
T24 cells [4] = test: Western blot of FAK and ERK phosphorylation in T24 cells; assay type: cell-based, human; settings: serum starved 12 hrs, treated 1 hr
Procedure: FIG. 6. Effect of TP receptor agonist (U46619) and antagonist (PTXA2) treatment on phosphorylation of FAK and ERK. T24 cells were serum starved for 12 hrs then treated with PTXA2 or U46619 for 1 hr. Tyrosine phosphorylation of FAK was assessed with western blot analysis on […] of cell lysate using anti-FAK pY397 (BD Bioscience) and pERK using a pERK specific antibody.
(§1) Tumor and normal bladder tissues were snap-frozen in liquid nitrogen within 30 minutes after the surgery. Frozen sections were stained with hematoxylin and eosin and samples identified that had at least 70% tumor cells were selected for further studies. Pulverized tissue powders were lysed in RIPA buffer (150 mM NaCl, 50 mM Tris-HCl [pH 8.0], 1% Triton X100, 0.1% SDS, 1% deoxycholate and protease inhibitor cocktail [Complete Protease Inhibitors, Roche]) for 15 minutes on ice. Equal amounts of total protein (40 μg) were resolved by 12% SDS-PAGE and subjected to Western blot analyses using ECL system (Amersham-Pharmacia). Screening Western blots for TP-α and TP-β isoform expression in bladder cancer cell lines was done using rabbit polyclonal antibodies against TP-α or TP-β (described above). SVHUC cells stably transfected with TP-α or TP-β plasmids were screened for PCNA, tubulin, GAPDH, FAK, pFAK, ERK, pERK protein (Santa Cruz) and ICAM-1 (Abcam).

SV-HUC cells = test: Western blot of FAK and ERK phosphorylation in SV-HUC cells; assay type: cell-based, human; settings: SV-HUC cells (TP-α expressor), not transfected
Procedure: as §1

PTN mRNA = PTN mRNA expression after receptor antagonist / agonist; assay type: cell-based
Excerpt: (§2) FIGS. 14A-F. TP-β regulation of pleiotrophin (PTN). […] (FIG. 14D) PTN mRNA reduction after PTXA2 treatment. The PTN mRNA levels are restored following the co-treatment with U46619. (FIG. 14E) shRNAi mediated knockdown of β-arrestin-2 reduced agonist dependent increase in PTN mRNA in HT-1376 cells (PTEN:wt), and UM-UC-3 cells (PTEN:minus). (FIG. 14F) Effect of U46619 on JNK1/2 and FOXO3a phosphorylation.

TP-β = molecular target: T1, TP-β (Homo sapiens, UniProt P21731); test: Phosphorylation of ERK and FAK in SV-HUC cells transfected with TP-β; assay type: cell-based
T1 construct: expressed in transfected cells
T1 sequence (P21731 1-407 isoform P21731-2): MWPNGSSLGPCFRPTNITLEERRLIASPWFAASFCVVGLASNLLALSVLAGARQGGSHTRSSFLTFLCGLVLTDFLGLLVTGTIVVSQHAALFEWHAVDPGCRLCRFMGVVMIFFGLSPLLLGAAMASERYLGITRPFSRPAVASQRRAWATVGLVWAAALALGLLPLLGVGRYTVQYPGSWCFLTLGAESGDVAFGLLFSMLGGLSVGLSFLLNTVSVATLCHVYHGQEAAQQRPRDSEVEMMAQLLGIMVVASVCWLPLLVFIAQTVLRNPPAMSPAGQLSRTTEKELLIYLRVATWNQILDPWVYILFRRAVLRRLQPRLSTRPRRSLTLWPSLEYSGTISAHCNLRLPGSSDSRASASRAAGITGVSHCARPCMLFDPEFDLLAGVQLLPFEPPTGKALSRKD
Procedure: (§3) FIG. 7. Effects of U46619 and PTXA2 on phosphorylation of ERK and FAK. SV-HUC cells transfected with pcDNA3, TP-α or TP-β data are representative of 3 experiments.
as §1
SV-HUC cells were grown to 80% confluence and transfected with 2 μg of pcDNA3 vector encoding either the TP-α or TP-β receptor isoforms. Transfection was performed in 6-well plates using the Fugene reagent (Roche) according to the manufacturer's instructions. After 72 hours post-transfection, cells were selected with 500 μg/ml G418 (Roche) and stable pools isolated after 14 days.

TP-β and PTEN = molecular target: T2, TP-β and PTEN (Homo sapiens, UniProt P21731); test: TP-β / PTEN co-immunoprecipitation and immunofluorescence; assay type: cell-based
T2 construct: endogenous in cells; host or cells: HT-1376 bladder cancer cells
T2 sequence (P21731 1-407 isoform P21731-2): as above
T2 sequence (P60484 2-403 partner limits assumed): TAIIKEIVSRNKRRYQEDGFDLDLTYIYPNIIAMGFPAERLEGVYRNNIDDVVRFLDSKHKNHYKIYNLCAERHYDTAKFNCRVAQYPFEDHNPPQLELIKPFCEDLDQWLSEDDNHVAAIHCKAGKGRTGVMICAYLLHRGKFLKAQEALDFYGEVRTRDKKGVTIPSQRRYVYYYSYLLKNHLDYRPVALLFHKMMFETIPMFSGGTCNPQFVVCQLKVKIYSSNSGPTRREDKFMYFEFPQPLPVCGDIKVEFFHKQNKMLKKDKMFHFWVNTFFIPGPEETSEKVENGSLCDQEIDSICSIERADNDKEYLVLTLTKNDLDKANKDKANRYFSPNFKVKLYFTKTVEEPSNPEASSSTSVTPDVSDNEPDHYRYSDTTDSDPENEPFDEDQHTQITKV
Procedure: FIGS. 13A-D. TP-β receptor localization and interaction with PTEN. (FIG. 13A) Co-immunoprecipitation followed by Western blot analysis. Immunoprecipitation with TP-α or TP-β specific antibodies was performed using extracts prepared from HT-1376 cells. […] Extracts prepared from solvent or agonist treated cells were immunoprecipitated with TP-β specific antibody. […] After TP-β stimulation with the U46619, PTEN translocated from the cytoplasm to the nuclear membrane. (FIG. 13D) PTEN lipid phosphatase activity was diminished in SV-HUC cells transfected with TP-β compared to those transfected with TP-α.

TP-α = molecular target: T3, TP-α (Homo sapiens, UniProt P21731); test: Phosphorylation of ERK and FAK in SV-HUC cells transfected with TP-α or pcDNA3; assay type: cell-based
T3 construct: expressed in transfected cells
T3 sequence (P21731 1-343): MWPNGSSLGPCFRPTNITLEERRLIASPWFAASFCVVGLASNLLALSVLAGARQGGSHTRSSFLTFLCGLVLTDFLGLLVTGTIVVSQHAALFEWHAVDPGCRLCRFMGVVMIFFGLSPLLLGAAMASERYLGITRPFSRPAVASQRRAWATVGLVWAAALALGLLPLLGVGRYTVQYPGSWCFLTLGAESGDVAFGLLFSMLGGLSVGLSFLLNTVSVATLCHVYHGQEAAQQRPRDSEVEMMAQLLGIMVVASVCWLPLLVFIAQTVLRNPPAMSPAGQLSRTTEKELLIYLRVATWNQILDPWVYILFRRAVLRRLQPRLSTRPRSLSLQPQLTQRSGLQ
Procedure: as §3, §1
SV-HUC cells were grown to 80% confluence and transfected with 2 μg of pcDNA3 vector encoding either the TP-α or TP-β receptor isoforms. Transfection was performed in 6-well plates using the Fugene reagent (Roche) according to the manufacturer's instructions. […]

JNK1/2 and FOXO3a = test: Effect of U46619 on JNK1/2 and FOXO3a; assay type: cell-based; settings: agonist stimulation
Excerpt: as §2

[5] = vehicle treated mice compared to GR32191 treated mice

SMILES: O=C(O)CC/C=C\CC[C@@H]1[C@@H](N2CCCCC2)[C@@H](O)C[C@@H]1OCc1ccc(-c2ccccc2)cc1 [GR32191]
safety in clinical studies [1]: shown to be safe | safety in clinical studies ([1]; listed as GR): excellent safety profile | time of tumor free mice ([2]; 20 mg/kg daily by gavage): significantly (P<0.04) extended | tumor growth ([2]; 20 mg/kg daily by gavage, monitored over time): significantly inhibited | detection of palpable tumors / time of tumor onset ([2]; 20 mg/kg daily by gavage, started 24 hrs after cell injection): delayed | survival ([2]; GR32191 alone): prolonged survival | survival ([2]; GR32191 in combination with cisplatin): prolonged survival | apoptosis, TUNEL staining ([2]; GR32191 treated compared to vehicle treated mice, p<0.05): significant increase in apoptosis | microvessel density (MVD), CD31 staining ([2]; vehicle control compared to mice treated with GR32191): significantly higher (p<0.05) microvessel density | cell proliferation, PCNA staining [2, 5]: significantly increased (p<0.05) cell proliferation | percentage of undifferentiated tumors, H&E staining [2, 5]: significantly higher percentage (p<0.01) of undifferentiated tumors | sensitivity to cisplatin (T24 cells [3]): enhanced sensitivity to cisplatin | inhibition of cell migration and invasion (bladder cancer cells; complementary studies, data not shown): 65% | tumor cell death (tumor cell): synergistically increased tumor cell death

SMILES: CCCCC[C@@H](O)/C=C/[C@H]1C[C@H]2C[C@@H]([C@@H]1C/C=C\CCCC(=O)O)C2(C)C [PTXA2]
phospho-ERK and phospho-FAK levels (T24 cells [4]): reduction in the elevated basal levels; also recorded: significantly reduced | phospho-ERK and phospho-FAK levels (SV-HUC cells): no effect | PTN mRNA expression (PTN mRNA; incubation with receptor antagonist): reduced PTN mRNA expression | U46619-stimulated increase in pERK1/2 and pFAK (TP-β; SV-HUC cells transfected with TP-β, antagonist added): blocked | basal levels of pFAK and pERK (TP-β; TP-β transfected SV-HUC cells, data not shown): decreased the basal levels

SMILES: O=C(O)CCC/C=C\C[C@@H]1[C@H](CNNC(=O)Nc2ccccc2)[C@H]2CC[C@@H]1O2 [SQ29548]
sensitivity to cisplatin (T24 cells [3]): enhanced sensitivity to cisplatin | tumor cell death (tumor cell): synergistically increased tumor cell death

localization of TP-β and PTEN proteins (TP-β and PTEN; immunofluorescence, in the presence of agonist): translocated to the nuclear membrane | phosphorylation of FAK and ERK on agonist stimulation (TP-α): failed to stimulate | PTN expression (PTN mRNA; co-incubation of agonist with PTXA2): restored
SMILES: CCCCC[C@H](O)/C=C/[C@@H]1[C@@H](C/C=C\CCCC(=O)O)[C@H]2CO[C@@H]1C2 [U46619]
association between TP-β and PTEN (TP-β and PTEN; immunoprecipitation with TP-β specific antibody, agonist versus solvent treated cells): Increased association between TP-β and PTEN | phospho-ERK and phospho-FAK levels (T24 cells [4]): significantly increased; also recorded: increased phosphorylation | phosphorylation of FAK and ERK on agonist stimulation (TP-β; SV-HUC cells transfected with TP-β): stimulated pERK1/2 and pFAK; also recorded: stimulated the phosphorylation of FAK and ERK | cell migration (bladder cancer cells; T-24 cells, transwell migration assay, 1 μM U46619 for 12 hours): increase in migration | JNK1/2 activation (JNK1/2 and FOXO3a): induced JNK1/2 activation | expression of the transcription factor FOXO3a (JNK1/2 and FOXO3a): reduced the expression
